# Data taken from PMC11489226 (Archives of Toxicology, 2024).
# Target: T1, CYP2C9 (Homo sapiens, UniProt P11712)
# T1 construct: V5-His (vector-encoded) (C); expressed in transfected cells
# Experiment: Metabolism in transgenic HEK293 cells expressing CYP2C9
# Assay type: in vitro ADME
# Details: HEK293CYP2C9; 10 µM substrate, 24 h
# Protocol: For the generation of transgenic cell lines, we used semi-adherent HEK293 cells (DSMZ, ACC305, human embryonic kidney cells) which were cultured on a daily basis in DMEM medium supplemented with 10% (FCS) and 1% penicillin/streptomycin. In a first step CYP1A2, CYP2C8, CYP2C9, CYP3A4, CYP2A6, and CYP2E1 cDNA were cloned into the plasmid pcDNATM3.1/V5-His TOPO® using human liver RNA as a template and using the following primers: CYP1A2 for5′-[…]-3′, CYP1A2 rev 5′-[…]-3′; CYP2C8 for 5′-[…]-3′, CYP2C8 rev 5′-[…]-3′; CYP2C9 for 5′-[…]-3′, CYP2C9 rev 5′-[…]-3′; CYP3A4 for 5′-[…]-3′, CYP3A4 rev 5′-[…]-3′, CYP2A6 for 5′-[…]-3′, CYP2A6 rev 5′-[…]-3′; CYP2E1 for 5′-[…]-3′, CYP2E1 rev 5′-[…]-3′. Final constructs were verified with Sanger DNA sequencing and restriction digestion. For transfection, 3 × 10^6 HEK293 cells were pre-incubated in a 10 cm dish in DMEM medium with 10% FCS, but without antibiotics, for 18 to 24 h. When the cells reached approximately 70% confluency, they were transfected using TransIT-LT1 transfection reagent (Biozol, Eiching, Germany). […]
# HEK293 cells overexpressing the respective CYP enzymes were seeded onto 6-well plates and were treated with or without 10 µM of the respective probe drug in DMEM medium for 24 hours at 37 °C and 5 % CO2. […] Analytes were measured by LC-MS/MS either in methanol cell lysates or in DMEM supernatant. […]
# T1 sequence (P11712 whole entry): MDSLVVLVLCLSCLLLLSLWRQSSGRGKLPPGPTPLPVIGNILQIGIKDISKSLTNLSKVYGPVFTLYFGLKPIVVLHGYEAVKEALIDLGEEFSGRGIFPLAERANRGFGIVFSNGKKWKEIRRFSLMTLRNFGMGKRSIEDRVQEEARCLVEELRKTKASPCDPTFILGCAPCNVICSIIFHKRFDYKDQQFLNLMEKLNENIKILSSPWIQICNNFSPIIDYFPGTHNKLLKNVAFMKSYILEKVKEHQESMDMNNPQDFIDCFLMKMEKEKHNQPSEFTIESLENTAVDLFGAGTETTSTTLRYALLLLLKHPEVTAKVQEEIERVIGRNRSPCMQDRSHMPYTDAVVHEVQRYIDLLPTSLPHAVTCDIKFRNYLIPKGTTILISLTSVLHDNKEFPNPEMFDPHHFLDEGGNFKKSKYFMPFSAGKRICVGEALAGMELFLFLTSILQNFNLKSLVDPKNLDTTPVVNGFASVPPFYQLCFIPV
structure (smiles),measurement,value
Cc1cccc(Nc2ccncc2S(=O)(=O)NC(=O)NC(C)C)c1 [Torasemide],Conversion product,Hydroxy torasemide
